# Patent publication EP2649091B1, “IMMUNE RESTRICTED PEPTIDES WITH INCREASED EFFICACY” (Stichting Het Nederlands Kanker Instituut, priority 2010, dated 2012)
# am‑phg = not defined here; PRG = not defined here
# Key:
# [1] = test system: LLFGLALIEV-specific CD8+ T cells; experiment: Mouse vaccination study, LLFGLALIEV tetramer analysis of blood; assay type: in vivo; conditions: mice vaccinated with 100 µg peptide with IFA and CpG; compared with LLFGLALIEV vaccinated mice, at all times after day one
# From the text: (§1) Three mouse vaccination studies were done using three different wild-type epitopes. In all cases, mice were vaccinated with the peptide supplemented with incomplete freunds ajuvant (IFA) and CpG. Analysis was done by analyzing blood samples with tetramers loaded with wild-type peptide in all cases.
# This was done for both groups of mice.
# [2] = test system: […]-specific CD8+ T cells; experiment: Mouse vaccination study, […] tetramer analysis of blood; assay type: in vivo; conditions: mice vaccinated with 5 µg peptide with IFA and CpG, booster at day 97; compared with […] vaccinated mice, at all times
# Description: as §1
# Two groups of three mice were vaccinated with 5 µg of either […] or [am-phg][NVA]AGIGILT[PRG]. At day 97, mice were administred a second dose (booster). At several timepoints blood was taken and tested for […]-specific CD8+ T cells using tetramers loaded with […]. This was done for both groups of mice.
Substance,LLFGLALIEV-specific CD8+ T cells in blood [1],[…]-specific CD8+ T cells in blood [2]
[PHG][2-AOC]FGLALIEV,specific T cell numbers were higher,
[am-phg][NVA]AGIGILT[PRG] ({am‑phg-NVA}-AGIGILT-{PRG}; reading uncertain; also: printed as [am-phg][NVA]AGIGILT[PRG]),,specific T cell numbers were higher
